tested on: MSP1-19; assay: Epitope mapping: displacement of human IgG from peptide pins on exposure to MSP1-19; parameters: species or system Plasmodium falciparum; settings: change in human IgG binding to peptide pin after 1 h exposure to 50 mg/mL MSP1-19 at room temperature; normalised to no-peptide pins and control peptide GLAQG
Protocol: A natural human IgG antibody library was tested for its ability to bind to peptides associated with the 19 kDa C-terminal region of merozoite surface protein 1 (MSP1-19) from Plasmodium falciparum (Kaslow et al., Mol. Biochem. Parasitology 63:283-289 (1994)). The 89 amino acid sequence from MSP1-19 was used for the epitope mapping experiment (see Table 1).
Briefly, a library of pentamer peptides was synthesized on polypropylene pins following the procedures described by Geysen et al., Proc. Natl. Acad. Sci. USA 81:3998-4002 (1984). These peptides represented all five-amino-acid stretches of MSP1-19 offset by one residue (Table 1). Peptide pins were precoated in phosphate buffered saline (PBS), pH 7.2, containing 2% BSA and 0.1% TWEEN 20 for one hour at room temperature. Five successive washes of the pins were carried out for five minutes each with agitation in PBS. Human IgG (Calbiochem; San Diego Calif.) was complexed to the peptides by incubating 0.1 mg/mL IgG in PBS at 4° C. for 30 hours. Unbound antibody was removed by washing as described above in 10 mM TRIS, pH 7.4 buffer containing 150 mM NaCl (TBS) using new microtiter plates for transferring the pins for each of the five washings. Anti-human IgG (goat) alkaline phosphatase conjugate was diluted to 0.1 mg specific antibody/mL in TBS and incubated with the peptide/antibody complex for one hour at room temperature before washing five times with TBS, as described above. The pins were then incubated in assay solution containing 10 mM TRIS, pH 8.0, 150 mM NaCl, 0.5 mM MgCl2, and 0.1 mM 4-methylumbelliferyl-phosphate for 30 minutes at room temperature in the dark. Following incubation, the fluorescence intensity of the assay solution was measured in a Spectromax Gemini plate reader (Molecular Devices; Sunnyvale Calif.)(ex 358 nm/em 450 nm).
The peptide/antibody complexes on the pins were washed five times in TBS, as described above, and incubated with 50 mg/mL MSP1-19 diluted in TBS for one hour at room temperature. The pins were washed in TBS as before and incubated in assay mixture for 30 minutes in the dark prior to measurement of the fluorescent intensity. Change in binding was determined using the equation: ΔF=(FMSP−Fb,MSP)/(F100,MSP−Fb,MSP)−(F0−Fb,0)/(F100,0−Fb,0) where FMSP and F0 are the fluorescence intensities of peptide containing pins after and before exposure to MSP1-19, respectively. Fb,MSP and Fb,0 are the fluorescence intensities of pins with no peptide after and before exposure to MSP1-19, respectively. F100,MSP and F100,0 are the fluorescence intensities of pins containing a control peptide, GLAQG (SEQ ID NO:90), after and prior to exposure to MSP1-19.

Question: How did the “ΔF (%)” value turn out when QCVKK [Peptide 6] was run?
Answer: <5%

Question: With QEGDK [Peptide 36] as the substance, how does the “ΔF (%)” value read?
Answer: <5%

Question: Which “ΔF (%)” value does the source give for QHQCV [Peptide 4] here?
Answer: <5%

Question: QNSGC [Peptide 14] was tested. Which “ΔF (%)” value did it give?
Answer: <5%

Question: With REECK [Peptide 25] as the substance, how does the “ΔF (%)” value read?
Answer: <5%

Question: RHLDE [Peptide 20] was tested. Which “ΔF (%)” value did it give?
Answer: <5%

Question: Which “ΔF (%)” value does the source give for SGCFR [Peptide 16] here?
Answer: <5%

Question: SGSNG [Peptide 67] was tested. Which “ΔF (%)” value did it give?
Answer: <5%

Question: Which “ΔF (%)” value does the source give for SNGKK [Peptide 69] here?
Answer: <5%

Question: For SQHQC [Peptide 3], which “ΔF (%)” value is on record?
Answer: <5%

Question: For SYPLF [Peptide 83], which “ΔF (%)” value is on record?
Answer: 13%

Question: With TCECT [Peptide 75] as the substance, how does the “ΔF (%)” value read?
Answer: 12%

Question: For TCNEN [Peptide 48], which “ΔF (%)” value is on record?
Answer: <5%

Question: For TEEDS [Peptide 63], which “ΔF (%)” value is on record?
Answer: <5%

Question: With TKPDS [Peptide 79] as the substance, how does the “ΔF (%)” value read?
Answer: 11%

Question: Which “ΔF (%)” value does the source give for VENPN [Peptide 42] here?
Answer: <5%

Question: VKKQC [Peptide 8] was tested. Which “ΔF (%)” value did it give?
Answer: <5%

Question: For YKQEG [Peptide 34], which “ΔF (%)” value is on record?
Answer: <5%

Question: Which “ΔF (%)” value does the source give for YPLFD [Peptide 84] here?
Answer: 12%

Source: patent US20060099648A1, “Compositions and methods for epitope mapping” (priority 2000, published 2006)
